# Measurements reported in article PMC8894198, “Biosynthetic Microcin J25 Exerts Strong Antibacterial, Anti-Inflammatory Activities, Low Cytotoxicity Without Increasing Drug-Resistance to Bacteria Target” (Frontiers in Immunology, 2022).
# Where “and” joins values, the source holds several entries; their conditions need not be identical. Equal entries are not always repeated. Where a SMILES comes first, the peptide text is derived from it. Bridges are numbered along the chain shown (N, C = ends).
# How the values were obtained:
# E. coli 987P = type: cell-based
# Method: (§1) The minimum inhibitory concentration (MIC) refers to the lowest concentration that can produce a significant hindrance to bacterial growth in a drug sensitivity test by adopting a broth dilution, with certain refinements and modifications based on the previous description ([25], [26]). In short, MccJ25 was dissolved in sterilized distilled water (SDW), serial 2-fold dilutions were prepared in Mueller-Hinton broth (MHB) through a 96-well microtiter plate, and the final concentration of MccJ25 was maintained in the range of 0.003125 to 256 μg/mL. Then, 2 μL of standard and clinically relevant overnight broth cultures of bacteria were inoculated into each well at a concentration of 5 × 10^6 CFU/mL. Microtiter plates were incubated at 37°C for one full day. Two groups were set up: positive (medium with inoculum) and negative (medium only) controls. The minimum bactericidal concentration (MBC) was measured in LB medium and refers to the first drug dilution value at which the initial bacterial concentration was reduced by 99.99%. The final analysis was determined by the results of three replicated and independent experiments. To further assess and clarify the antimicrobial activity of MccJ25, the protective ability against E. coli adhesion, live/dead assay, and killing curve were performed, the detailed methods were provided in Supplementary Materials .
# E. coli BRO 477 = type: cell-based; settings: source broiler stool
# Method: as §1
# E. coli CATT921A-1 = type: cell-based; settings: source mastitis pathogens
# Method: as §1
# E. coli CVCC1543 = type: cell-based
# Method: as §1
# E. coli LKFZ F2 = type: cell-based; settings: source pig stool
# Method: as §1
# E. coli WWE921A-2 = type: cell-based; settings: source pig tissue
# Method: as §1
# Salmonella CATT LX1 = type: cell-based; settings: source mastitis pathogens
# Method: as §1
# E. coli 1499 = assay: MIC/MBC broth dilution, standard strain; type: cell-based
# Method: as §1
# E. coli ATCC25922 = assay: MIC/MBC broth dilution, standard strain; type: cell-based
# Method: as §1
# E. coli CVCC1515 = assay: MIC/MBC broth dilution, standard strain; type: cell-based
# Method: as §1
# [1] = test system: Salmonella enteritidis CMCC50336; assay: MIC/MBC broth dilution, standard strain; type: cell-based
# Method: as §1
# [2] = test system: Shigella flexneri CMCC51571; assay: MIC/MBC broth dilution, standard strain; type: cell-based; settings: LB medium, 99.99% reduction; three independent experiments
# Method: as §1
# E. coli K88 = type: cell-based; settings: sublethal concentrations 0.25 × and 0.5 × MIC
# Method: Mutation rates were based on rifampicin and refined ([28], [29]). Overnight cultures of E. coli K88 were diluted in 50 mL of LB broth at a ratio of 1:10,000 and grown for 3.5 h at 37°C. […] Eleven 1-mL replicates of each treatment group were grown at 37°C for 24 h. These cultures were then serially diluted and plated on LB agar plates containing 100 μg/mL rifampicin. Afterwards, plates were incubated at 37°C for 48 h. Single colonies on the plates were counted to determine CFU/mL. Mutagenesis rates were calculated using the bz-rates-mutation rate calculator (http://www.lcqb.upmc.fr/bzrates).
# [3] = test system: E. coli O111:B4 LPS-challenged BALB/c mice; assay: LPS-challenged mice experiment (septicemia model); type: in vivo; settings: LPS 15 mg/kg i.p.; MccJ25 4.55 and 9.1 mg/kg BW; followed 72 h
# [4] = LB medium, 99.99% reduction, three independent experiments
# [5] = broth dilution in MHB, 37°C, one day, three independent experiments
# [6] = broth dilution in MHB, 37°C, three independent experiments
smiles,measurement,setting,value
"CC[C@H](C)[C@H](NC(=O)CNC(=O)[C@@H](NC(=O)[C@H](Cc1ccccc1)NC(=O)[C@H](Cc1ccc(O)cc1)NC(=O)[C@@H]1CCC(=O)NCC(=O)NCC(=O)N[C@@H](C)C(=O)NCC(=O)N[C@@H](Cc2c[nH]cn2)C(=O)N[C@@H](C(C)C)C(=O)N2CCC[C@H]2C(=O)N1)C(C)C)C(=O)NCC(=O)N[C@H](C(=O)N1CCC[C@H]1C(=O)N[C@H](C(=O)N[C@@H](CO)C(=O)N[C@@H](Cc1ccccc1)C(=O)N[C@@H](Cc1ccc(O)cc1)C(=O)NCC(=O)O)[C@@H](C)CC)[C@@H](C)O [MccJ25, microcin J25] (GGAGHVPEYFVGIGTPISFYG-OH; lactam N-8 (inferred); C-terminus assumed)",MBC,E. coli 987P; [4],0.500 µg/mL
same,MIC,E. coli 987P; [5],0.030 µg/mL
same,MIC/MBC,E. coli 987P; ratio,0.060
same,MBC,E. coli BRO 477; [4],1.000 µg/mL
same,MIC,E. coli BRO 477; [6],0.500 µg/mL
same,MIC/MBC,E. coli BRO 477; ratio,0.500
same,MBC,E. coli CATT921A-1; [4],2.000 µg/mL
same,MIC,E. coli CATT921A-1; [6],0.250 µg/mL
same,MIC/MBC,E. coli CATT921A-1; ratio,0.125
same,MBC,E. coli CVCC1543; [4],0.250 µg/mL
same,MIC,E. coli CVCC1543; [5],0.03 µg/mL and 0.030 µg/mL
same,MIC/MBC,E. coli CVCC1543; ratio,0.120
same,MBC,E. coli LKFZ F2; [4],0.500 µg/mL
same,MIC,E. coli LKFZ F2; [6],0.250 µg/mL
same,MIC/MBC,E. coli LKFZ F2; ratio,0.500
same,MBC,E. coli WWE921A-2; [4],2.000 µg/mL
same,MIC,E. coli WWE921A-2; [6],1.000 µg/mL
same,MIC/MBC,E. coli WWE921A-2; ratio,0.500
same,MBC,Salmonella CATT LX1; [4],0.250 µg/mL
same,MIC,Salmonella CATT LX1; [6],0.060 µg/mL
same,MIC/MBC,Salmonella CATT LX1; ratio,0.240
same,MBC,E. coli 1499; [4],1.000 µg/mL
same,MIC,E. coli 1499; [5],0.400 µg/mL
same,MIC/MBC,E. coli 1499; ratio,0.400
same,MBC,E. coli ATCC25922; [4],0.500 µg/mL
same,MIC,E. coli ATCC25922; [5],0.125 µg/mL
same,MIC/MBC,E. coli ATCC25922; ratio,0.250
same,MBC,E. coli CVCC1515; [4],2.000 µg/mL
same,MIC,E. coli CVCC1515; [5],0.500 µg/mL
same,MIC/MBC,E. coli CVCC1515; ratio,0.250
same,MBC,[1]; [4],4.000 µg/mL
same,MIC,[1]; [5],2.000 µg/mL
same,MIC/MBC,[1]; ratio,0.500
same,MBC,[2],0.500 µg/mL
same,mutation rate compared to the control,E. coli K88,did not show a greater difference in mutation rate compared to the control
same,survival rate,[3],increased
